How the values were obtained:
FADD−/− Jurkat cells = test: Necroptosis inhibition assay, TNF-α-induced necroptosis (CellTiter-Glo 2.0); type: cell-based, human; details: TNF-α 15 ng/mL; for Necroptosis inhibition assay (Rescue %) 1 μM: compound 1 μM; for Necroptosis inhibition assay (Rescue %) 10 μM: compound 10 μM
Method in brief: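 Luminescent ATP measurement gave viability, from which cytotoxicity and necroptosis inhibition rate were derived. Before that, cells (5.0×10^5 cells/mL) saw compound at 0.1, 1 or 10 μM final for 30 minutes at room temperature, then TNF-α (15 ng/mL final) for 20 to 24 hours at 37° C.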

MLKL [1] = target: T1, MLKL (Homo sapiens, UniProt Q8NB16); test: Measurement of binding affinity with MLKL receptor (competitive binding assay, Kd); parameters: made in house; host or cells: HEK 293 cell line (T7 phage in E. coli BL21-derived host is also described)
T1 sequence (Q8NB16 1-471): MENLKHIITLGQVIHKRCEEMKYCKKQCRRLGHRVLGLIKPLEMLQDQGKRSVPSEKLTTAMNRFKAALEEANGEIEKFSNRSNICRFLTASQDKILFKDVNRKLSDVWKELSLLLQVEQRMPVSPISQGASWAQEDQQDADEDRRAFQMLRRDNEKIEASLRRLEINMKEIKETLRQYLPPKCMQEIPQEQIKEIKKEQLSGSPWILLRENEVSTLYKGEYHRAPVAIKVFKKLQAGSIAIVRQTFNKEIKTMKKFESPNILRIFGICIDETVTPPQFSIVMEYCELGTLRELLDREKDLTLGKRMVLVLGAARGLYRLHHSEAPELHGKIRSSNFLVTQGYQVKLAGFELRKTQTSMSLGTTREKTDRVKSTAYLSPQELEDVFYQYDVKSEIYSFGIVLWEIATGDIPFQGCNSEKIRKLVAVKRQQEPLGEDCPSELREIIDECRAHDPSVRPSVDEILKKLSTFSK
Method in brief: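 Competitive displacement of MLKL, expressed in HEK 293 cells and DNA-tagged for qPCR, from immobilized ligand on biotin-blocked beads. Compounds were added from 111× DMSO stocks (final DMSO 0.9%). Kinase left in the eluates was quantified by qPCR to give Kd.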

MLKL [2] = target: T1, MLKL; test: MLKL degradation assay in HepG2 cell line (western blot); type: cell-based; parameters: endogenous in cells; host or cells: HepG2 or HaCaT; details: cell line not given; for Degradation assay (Degradation %) 1 μM: compound 1 μM; for Degradation assay (Degradation %) 10 μM: compound 10 μM
Method in brief: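 Cells seeded, next day medium swapped for compound-containing medium (final 1 or 10 μM) and incubated 20-24 h at 37 °C. Lysates in RIPA with protease/phosphatase inhibitors were protein-matched by BCA, run on SDS-PAGE and immunoblotted for MLKL.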

Compound	Necroptosis inhibition assay (Rescue %) 1 μM (FADD−/− Jurkat cells)	Necroptosis inhibition assay (Rescue %) 10 μM (FADD−/− Jurkat cells)	Kd (MLKL [1])	Degradation assay (Degradation %) 1 μM (MLKL [2])	Degradation assay (Degradation %) 10 μM (MLKL [2])	Necroptosis inhibition assay (Rescue %) 1 μM (FADD−/− Jurkat cells; FADD−/− Jurkat cells)	Necroptosis inhibition assay (Rescue %) 10 μM (FADD−/− Jurkat cells; FADD−/− Jurkat cells)
Nc1ncc(-c2cnn(C3CCN(CCC4CCN(C(=O)C5CCN(c6ccc7nnn(C8CCC(=O)NC8=O)c(=O)c7c6)CC5)CC4)CC3)c2)nc1C(=O)OC(C(=O)Nc1ccc(F)cc1)c1ccccc1 (stereo not shown) [TDH-290, 2-((4-fluorophenyl)amino)-2-oxo-1-phenylethyl 3-amino-6-(1-(1-(2-(1-(1-(3-(2,6-dioxopiperidin-3-yl)-4-oxo-3,4-dihydrobenzo[d][1,2,3]triazin-6-yl)piperidine-4-carbonyl)piperidin-4-yl)ethyl)piperidin-4-yl)-1H-pyrazol-4-yl)pyrazine-2-carboxylate]	90.57%	84.93%	5.3 nM	56.44%	44.97%	–	–
Nc1ncc(-c2cnn(C3CCN(CCC4CCN(C(=O)CCc5ccc6c(c5)CN(C5CCC(=O)NC5=O)C6=O)CC4)CC3)c2)nc1C(=O)O[C@@H](C(=O)Nc1ccc(F)cc1)c1ccccc1 (stereo partly drawn) [TDH-475, (R)-2-((4-fluorophenyl)amino)-2-oxo-1-phenylethyl 3-amino-6-(1-(1-(2-(1-(3-(2-(2,6-dioxopiperidin-3-yl)-1-oxoisoindolin-5-yl)propanoyl)piperidin-4-yl)ethyl)piperidin-4-yl)-1H-pyrazol-4-yl)pyrazine-2-carboxylate]	–	–	0.34 nM	81.77%	60.49%	31.75%	7.21%
Nc1ncc(-c2cnn(C3CCN(C[C@H]4CC[C@H](CNc5ccc6c(c5)C(=O)N(C5CCC(=O)NC5=O)C6=O)CC4)CC3)c2)nc1C(=O)O[C@@H](C(=O)Nc1ccc(F)cc1)c1ccccc1 (stereo partly drawn) [TDH-352, (R)-2-((4-fluorophenyl)amino)-2-oxo-1-phenylethyl 3-amino-6-(1-(1-(((1r,4r)-4-(((2-(2,6-dioxopiperidin-3-yl)-1,3-dioxoisoindolin-5-yl)amino)methyl)cyclohexyl)methyl)piperidin-4-yl)-1H-pyrazol-4-yl)pyrazine-2-carboxylate]	11.36%	5.3%	5.4 nM	50.93%	42.16%	–	–
Nc1ncc(-c2cnn(C3CCN(C(=O)C4CCN(C(=O)COc5ccc6c(c5)C(=O)N(C5CCC(=O)NC5=O)C6=O)CC4)CC3)c2)nc1C(=O)OC(C(=O)Nc1ccc(F)cc1)c1ccccc1 (stereo not shown) [TDH-278, 2-((4-fluorophenyl)amino)-2-oxo-1-phenylethyl 3-amino-6-(1-(1-(1-(2-((2-(2,6-dioxopiperidin-3-yl)-1,3-dioxoisoindolin-5-yl)oxy)acetyl)piperidine-4-carbonyl)piperidin-4-yl)-1H-pyrazol-4-yl)pyrazine-2-carboxylate]	63.64%	39.23%	1.4 nM	64.63%	75.28%	–	–
Nc1ncc(-c2cnn(C3CCN(CC4CCN(CCC5CCN(C(=O)Cc6cccc(NC7=CC(=O)N(C8CCC(=O)NC8=O)C7=O)c6)CC5)CC4)CC3)c2)nc1C(=O)O[C@@H](C(=O)Nc1ccc(F)cc1)c1ccccc1 (stereo partly drawn) [TDH-507, (R)-2-((4-fluorophenyl)amino)-2-oxo-1-phenylethyl 3-amino-6-(1-(1-((1-(2-(1-(2-(3-((1-(2,6-dioxopiperidin-3-yl)-2,5-dioxo-2,5-dihydro-1H-pyrrol-3-yl)amino)phenyl)acetyl)piperidin-4-yl)ethyl)piperidin-4-yl)methyl)piperidin-4-yl)-1H-pyrazol-4-yl)pyrazine-2-carboxylate]	–	–	1.1 nM	82.75%	86.37%	26.03%	14.19%
Nc1ncc(-c2cnn(C3CCN(CCCN4CCN(C(=O)c5cccc(C(=O)NC6CCC(=O)NC6=O)c5)CC4)CC3)c2)nc1C(=O)O[C@@H](C(=O)Nc1ccc(F)cc1)c1ccccc1 (stereo partly drawn) [TDH-542, (R)-2-((4-fluorophenyl)amino)-2-oxo-1-phenylethyl 3-amino-6-(1-(1-(3-(4-(3-((2,6-dioxopiperidin-3-yl)carbamoyl)benzoyl)piperazin-1-yl)propyl)piperidin-4-yl)-1H-pyrazol-4-yl)pyrazine-2-carboxylate]	–	–	0.53 nM	84.12%	72.45%	24.80%	29.40%
Nc1ncc(-c2cnn(C3CCN(CC4CN(C(=O)C5CCN(c6cccc7c6C(=O)N(C6CCC(=O)NC6=O)C7=O)CC5)CCO4)CC3)c2)nc1C(=O)OC(C(=O)Nc1ccc(F)cc1)c1ccccc1 (stereo not shown) [TDH-304, 2-((4-fluorophenyl)amino)-2-oxo-1-phenylethyl 3-amino-6-(1-(1-((4-(1-(2-(2,6-dioxopiperidin-3-yl)-1,3-dioxoisoindolin-4-yl)piperidine-4-carbonyl)morpholin-2-yl)methyl)piperidin-4-yl)-1H-pyrazol-4-yl)pyrazine-2-carboxylate]	38.26%	35.22%	2.9 nM	85.02%	84.91%	–	–
Nc1ncc(-c2cnn(C3CCN(CCOCCOCCOCCNC(=O)C4CCN(c5cccc6c5C(=O)N(C5CCC(=O)NC5=O)C6=O)CC4)CC3)c2)nc1C(=O)O[C@@H](C(=O)Nc1ccc(F)cc1)c1ccccc1 (stereo partly drawn) [TDH-139, (R)-2-((4-fluorophenyl)amino)-2-oxo-1-phenylethyl 3-amino-6-(1-(1-(1-(1-(2-(2,6-dioxopiperidin-3-yl)-1,3-dioxoisoindolin-4-yl)piperidin-4-yl)-1-oxo-5,8,11-trioxa-2-azatridecan-13-yl)piperidin-4-yl)-1H-pyrazol-4-yl)pyrazine-2-carboxylate]	18.11%	61.89%	4.9 nM	–	78.56%	–	–
Nc1ncc(-c2cnn(C3CCN(C(=O)COC4CCN(C(=O)COc5ccc6c(c5)C(=O)N(C5CCC(=O)NC5=O)C6=O)CC4)CC3)c2)nc1C(=O)O[C@@H](C(=O)Nc1ccc(F)cc1)c1ccccc1 (stereo partly drawn) [TDH-394, (R)-2-((4-fluorophenyl)amino)-2-oxo-1-phenylethyl 3-amino-6-(1-(1-(2-((1-(2-((2-(2,6-dioxopiperidin-3-yl)-1,3-dioxoisoindolin-5-yl)oxy)acetyl)piperidin-4-yl)oxy)acetyl)piperidin-4-yl)-1H-pyrazol-4-yl)pyrazine-2-carboxylate]	47.22%	53.54%	2.8 nM	60.83%	94.76%	–	–
Nc1ncc(-c2cnn(C3CCN(CCCN4CCN(C(=O)C5CN(C6=CC(=O)N(C7CCC(=O)NC7=O)C6=O)C5)CC4)CC3)c2)nc1C(=O)O[C@@H](C(=O)Nc1ccc(F)cc1)c1ccccc1 (stereo partly drawn) [TDH-532, (R)-2-((4-fluorophenyl)amino)-2-oxo-1-phenylethyl 3-amino-6-(1-(1-(3-(4-(1-(1-(2,6-dioxopiperidin-3-yl)-2,5-dioxo-2,5-dihydro-1H-pyrrol-3-yl)azetidine-3-carbonyl)piperazin-1-yl)propyl)piperidin-4-yl)-1H-pyrazol-4-yl)pyrazine-2-carboxylate]	–	–	1.4 nM	73.88%	38.71%	21.37%	24.82%

From patent US20240252488A1 (KOREA RESEARCH INSTITUTE OF CHEMICAL TECHNOLOGY, priority 2020, published 2024)
